Molecular target: T1, LRRK2 (Homo sapiens, UniProt Q5S007, G2019S)
T1 construct: purchased Invitrogen PV4882 (lot 567054A)
Test: In Vitro LRRK2 Assay (LabChip 3000, fluorescently-labeled peptide substrate, ATP)
Assay type: biochemical
Conditions: read-out: LRRK2 Ki (KI), Table 8
Description: This assay was used to determine a compound's potency in inhibiting activity of LRRK2 by determining, Kiapp, IC50, or percent inhibition values. In a polypropylene plate, LRRK2, fluorescently-labeled peptide substrate, ATP and test compound were incubated together. Using a LabChip 3000 (Caliper Life Sciences), after the reaction the substrate was separated by capillary electrophoresis into two populations: phosphorylated and unphosphorylated. The relative amounts of each were quantitated by fluorescence intensity. LRRK2 Ki was determined according to the equation: Y=V0*(1−(x+Ki*(1+S/Km)+Et)/(2*Et)−(((x+Ki*(1+S/Km)+Et)^2−(4*Et*x))^0.5)/(2*Et))). Ki values in Table 4 and elsewhere herein are shown in μM.
Assay conditions and materials used were as follows:
Compound Plate Preparation:
For serial dilutions, 34.6 μl DMSO was added to columns 3-24.
Total and Blank Preparation:
In Complete Reaction Buffer, substrate was diluted to 4 μM. Equal volumes of Complete Reaction Buffer and 4 μM substrate were combined to obtain the blank. Equal volumes of Complete Reaction Buffer and 4 μM substrate were combined and to the combined solution was added 2× final LRRK2 concentration.
To a 50 μl polypropylene plate, 5 μl/well buffer/substrate was added by hand to Blank wells. A Biomek FX was used to start the kinase reaction (“PLK SAR 23 ATP”). The following were added to the appropriate wells:
5 μl/well compound/ATP in Assay Plate;
5 μl/well kinase/substrate in Assay Plate;
The plate was incubated for 2 hours in the dark. Biomek FX was used to stop the kinase reaction (“PLK Stop”), and 10 μl/well Stop solution was added to the Assay Plate. Results were read on the LabChip 3000.
The LabChip 3000 was run using the job “LRRK2 IC50” with the following job settings: […]

T1 sequence (Q5S007 whole entry G2019S): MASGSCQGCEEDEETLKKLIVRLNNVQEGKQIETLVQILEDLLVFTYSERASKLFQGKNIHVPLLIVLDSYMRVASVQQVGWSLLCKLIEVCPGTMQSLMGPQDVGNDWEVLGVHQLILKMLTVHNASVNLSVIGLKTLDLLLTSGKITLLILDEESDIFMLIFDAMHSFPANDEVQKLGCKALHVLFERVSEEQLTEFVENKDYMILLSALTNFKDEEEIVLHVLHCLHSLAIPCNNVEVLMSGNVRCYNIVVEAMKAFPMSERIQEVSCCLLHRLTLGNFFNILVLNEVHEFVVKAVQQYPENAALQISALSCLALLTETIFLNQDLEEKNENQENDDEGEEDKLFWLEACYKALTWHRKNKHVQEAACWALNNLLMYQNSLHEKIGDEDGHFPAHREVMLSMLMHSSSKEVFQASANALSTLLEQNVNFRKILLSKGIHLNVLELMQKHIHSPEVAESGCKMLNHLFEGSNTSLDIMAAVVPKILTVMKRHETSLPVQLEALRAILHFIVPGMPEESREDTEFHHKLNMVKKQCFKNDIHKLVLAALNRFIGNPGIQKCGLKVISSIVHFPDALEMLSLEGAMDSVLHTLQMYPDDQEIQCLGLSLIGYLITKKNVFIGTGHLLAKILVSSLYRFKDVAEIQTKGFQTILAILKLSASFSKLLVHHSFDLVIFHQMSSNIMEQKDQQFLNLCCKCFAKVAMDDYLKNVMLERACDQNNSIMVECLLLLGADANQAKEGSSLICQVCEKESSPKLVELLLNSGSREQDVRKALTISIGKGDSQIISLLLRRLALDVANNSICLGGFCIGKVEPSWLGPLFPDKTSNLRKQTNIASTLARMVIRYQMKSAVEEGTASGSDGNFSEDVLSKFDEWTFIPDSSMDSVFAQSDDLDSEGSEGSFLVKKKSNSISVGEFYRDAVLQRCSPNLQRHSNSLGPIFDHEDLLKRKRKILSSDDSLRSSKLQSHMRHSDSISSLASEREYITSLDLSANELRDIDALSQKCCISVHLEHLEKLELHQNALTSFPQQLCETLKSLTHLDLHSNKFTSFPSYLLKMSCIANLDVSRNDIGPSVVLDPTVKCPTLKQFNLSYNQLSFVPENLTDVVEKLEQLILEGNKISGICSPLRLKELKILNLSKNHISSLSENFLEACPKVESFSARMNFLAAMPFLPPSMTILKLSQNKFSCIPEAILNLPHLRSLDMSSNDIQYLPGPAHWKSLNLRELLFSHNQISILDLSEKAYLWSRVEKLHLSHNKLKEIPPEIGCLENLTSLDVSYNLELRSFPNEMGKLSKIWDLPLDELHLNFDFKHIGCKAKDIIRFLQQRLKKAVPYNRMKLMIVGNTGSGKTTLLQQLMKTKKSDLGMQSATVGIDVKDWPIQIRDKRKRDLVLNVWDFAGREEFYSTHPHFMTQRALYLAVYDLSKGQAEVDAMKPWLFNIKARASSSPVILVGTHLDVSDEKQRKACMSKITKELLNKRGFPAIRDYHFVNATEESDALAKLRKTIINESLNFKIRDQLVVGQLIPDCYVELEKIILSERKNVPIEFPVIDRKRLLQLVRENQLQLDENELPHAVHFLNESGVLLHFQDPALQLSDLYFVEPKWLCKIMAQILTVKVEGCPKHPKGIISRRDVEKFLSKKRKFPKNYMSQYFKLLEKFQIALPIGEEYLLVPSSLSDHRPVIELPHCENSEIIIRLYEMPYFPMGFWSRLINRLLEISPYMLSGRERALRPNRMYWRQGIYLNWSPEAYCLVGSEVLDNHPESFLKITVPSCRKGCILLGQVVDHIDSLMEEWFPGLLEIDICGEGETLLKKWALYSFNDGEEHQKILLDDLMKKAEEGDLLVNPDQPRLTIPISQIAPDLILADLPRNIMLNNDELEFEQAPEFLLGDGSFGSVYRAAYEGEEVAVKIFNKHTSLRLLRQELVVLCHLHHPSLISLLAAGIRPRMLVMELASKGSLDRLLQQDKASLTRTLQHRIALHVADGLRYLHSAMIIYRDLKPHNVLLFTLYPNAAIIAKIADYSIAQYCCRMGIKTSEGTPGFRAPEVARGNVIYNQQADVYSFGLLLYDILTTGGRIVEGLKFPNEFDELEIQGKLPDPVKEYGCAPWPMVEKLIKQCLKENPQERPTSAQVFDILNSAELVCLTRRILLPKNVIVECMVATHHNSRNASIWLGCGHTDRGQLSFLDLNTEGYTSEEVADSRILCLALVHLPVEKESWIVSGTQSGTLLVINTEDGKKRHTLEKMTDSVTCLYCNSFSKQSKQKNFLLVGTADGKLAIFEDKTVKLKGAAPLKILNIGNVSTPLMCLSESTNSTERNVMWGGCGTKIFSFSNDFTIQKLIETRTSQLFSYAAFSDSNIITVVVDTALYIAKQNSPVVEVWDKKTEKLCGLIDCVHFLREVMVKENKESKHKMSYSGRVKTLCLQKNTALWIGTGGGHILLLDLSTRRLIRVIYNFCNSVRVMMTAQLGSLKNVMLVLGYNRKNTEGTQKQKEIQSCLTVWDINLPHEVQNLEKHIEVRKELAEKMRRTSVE

SMILES	Ki
CNc1nc(Nc2cnn(-c3cc(F)cc(F)c3)c2C)ncc1Br [Example 115, 5-bromo-N2-(1-(3,5-difluorophenyl)-5-methyl-1H-pyrazol-4-yl)-N4-methylpyrimidine-2,4-diamine]	31 nM
CNc1nc(Nc2cn(-c3ccccn3)nc2C)ncc1C(F)(F)F [Example 117, N4-methyl-N2-(3-methyl-1-(pyridin-2-yl)-1H-pyrazol-4-yl)-5-(trifluoromethyl) pyrimidine-2,4-diamine]	6.7 nM
CNc1nc(Nc2cn(CC3(C)COC3)nc2C)ncc1C(F)(F)F [Example 118, N4-methyl-N2-(3-methyl-1-((3-methyloxetan-3-yl)methyl)-1H-pyrazol-4-yl)-5-(trifluoromethyl) pyrimidine-2,4-diamine]	7.2 nM
CNc1nc(Nc2cnn(-c3ccc(Cl)cc3)c2C)ncc1Br [Example 122, 5-bromo-N2-(1-(4-chlorophenyl)-5-methyl-1H-pyrazol-4-yl)-N4-methylpyrimidine-2,4-diamine]	14 nM
CNc1nc(Nc2cn(C3C[C@@H]4CC[C@@H](C3)O4)nc2C)ncc1C(F)(F)F (stereo partly drawn) [Example 126, N2-(1-((1S,5S)-8-oxabicyclo[3.2.1]octan-3-yl)-3-methyl-1H-pyrazol-4-yl)-N4-methyl-5-(trifluoromethyl) pyrimidine-2,4-diamine]	113 nM
CNc1nc(Nc2cn(-c3ncccn3)nc2C)ncc1C(F)(F)F [Example 128, N4-methyl-N2-(3-methyl-1-(pyrimidin-2-yl)-1H-pyrazol-4-yl)-5-(trifluoromethyl) pyrimidine-2,4-diamine]	11.4 nM
CNc1nc(Nc2cn(-c3ccc(Cl)cc3)nc2C)ncc1C(F)(F)F [Example 129, N2-(1-(4-chlorophenyl)-3-methyl-1H-pyrazol-4-yl)-N4-methyl-5-(trifluoromethyl) pyrimidine-2,4-diamine]	28 nM
CNc1nc(Nc2cn(C3CCN(C4COC4)CC3)nc2C)ncc1C(F)(F)F [Example 131, N4-methyl-N2-(3-methyl-1-(1-(oxetan-3-yl)piperidin-4-yl)-1H-pyrazol-4-yl)-5-(trifluoromethyl) pyrimidine-2,4-diamine]	37.4 nM
CNc1nc(Nc2cn(C3CCN(C(=O)C4CC4)CC3)nc2C)ncc1C(F)(F)F [Example 136, cyclopropyl(4-(3-methyl-4-(4-(methylamino)-5-(trifluoromethyl)pyrimidin-2-ylamino)-1H-pyrazol-1-yl)piperidin-1-yl)methanone]	9.3 nM
CNc1nc(Nc2cn(-c3cncnc3)nc2C)ncc1C(F)(F)F [Example 140, N4-methyl-N2-(3-methyl-1-(pyrimidin-5-yl)-1H-pyrazol-4-yl)-5-(trifluoromethyl) pyrimidine-2,4-diamine]	6.1 nM
CNc1nc(Nc2nn(C3CCN(C)CC3)cc2C)ncc1C(F)(F)F [Example 141, N4-methyl-N2-(4-methyl-1-(1-methylpiperidin-4-yl)-1H-pyrazol-3-yl)-5-(trifluoromethyl) pyrimidine-2,4-diamine]	41 nM

These reach a lower Ki. Values come first.

Ki	SMILES
0.3 nM	CNc1nc(Nc2cn(-c3cc(F)cc(F)c3)nc2C)ncc1Br [Example 116, 5-bromo-N2-(1-(3,5-difluorophenyl)-3-methyl-1H-pyrazol-4-yl)-N4-methylpyrimidine-2,4-diamine]
5.6 nM	CCCn1ncc(Nc2ncc(C(F)(F)F)c(NC)n2)c1C [Example 119, N4-methyl-N2-(5-methyl-1-propyl-1H-pyrazol-4-yl)-5-(trifluoromethyl) pyrimidine-2,4-diamine]
0.6 nM	CCCn1cc(Nc2ncc(C(F)(F)F)c(NC)n2)c(C)n1 [Example 120, N4-methyl-N2-(3-methyl-1-propyl-1H-pyrazol-4-yl)-5-(trifluoromethyl) pyrimidine-2,4-diamine]
3.1 nM	CNc1nc(Nc2cn(C(C)C)nc2C)ncc1Br [Example 121, 5-bromo-N2-(1-isopropyl-3-methyl-1H-pyrazol-4-yl)-N4-methylpyrimidine-2,4-diamine]
0.3 nM	CNc1nc(Nc2cnn(-c3ccc(Cl)cc3)c2C)ncc1C(F)(F)F [Example 123, N2-(1-(4-chlorophenyl)-5-methyl-1H-pyrazol-4-yl)-N4-methyl-5-(trifluoromethyl) pyrimidine-2,4-diamine]
0.3 nM	CNc1nc(Nc2cn(-c3ccc(S(C)(=O)=O)cc3)nc2C)ncc1C(F)(F)F [Example 124, N4-methyl-N2-(3-methyl-1-(4-(methylsulfonyl)phenyl)-1H-pyrazol-4-yl)-5-(trifluoromethyl) pyrimidine-2,4-diamine]
4.7 nM	CNc1nc(Nc2cnn(-c3ccc(S(C)(=O)=O)cc3)c2C)ncc1C(F)(F)F [Example 125, N4-methyl-N2-(5-methyl-1-(4-(methylsulfonyl)phenyl)-1H-pyrazol-4-yl)-5-(trifluoromethyl) pyrimidine-2,4-diamine]
0.3 nM	CCCCn1ncc(Nc2ncc(C(F)(F)F)c(NC)n2)c1C [Example 127, N2-(1-butyl-5-methyl-1H-pyrazol-4-yl)-N4-methyl-5-(trifluoromethyl) pyrimidine-2,4-diamine]
1.1 nM	CNc1nc(Nc2cn(CCF)nc2C)ncc1C(F)(F)F [Example 130, N2-(1-(2-fluoroethyl)-3-methyl-1H-pyrazol-4-yl)-N4-methyl-5-(trifluoromethyl) pyrimidine-2,4-diamine]
1.8 nM	CNc1nc(Nc2cnn(CCF)c2C)ncc1C(F)(F)F [Example 133, N2-(1-(2-fluoroethyl)-5-methyl-1H-pyrazol-4-yl)-N4-methyl-5-(trifluoromethyl) pyrimidine-2,4-diamine]
2.2 nM	CCNc1nc(Nc2cn(C3CCN(C(C)=O)CC3)nc2C)ncc1C(F)(F)F [Example 134, 1-(4-(4-(4-(ethylamino)-5-(trifluoromethyl)pyrimidin-2-ylamino)-3-methyl-1H-pyrazol-1-yl)piperidin-1-yl)ethanone]
1 nM	CNc1nc(Nc2cnn(C3CCN(C(=O)C4CC4)CC3)c2C)ncc1C(F)(F)F [Example 135, cyclopropyl(4-(5-methyl-4-(4-(methylamino)-5-(trifluoromethyl)pyrimidin-2-ylamino)-1H-pyrazol-1-yl)piperidin-1-yl)methanone]
0.4 nM	CCNc1nc(Nc2cnn(C3CCN(C(C)=O)CC3)c2C)ncc1C(F)(F)F [Example 137, 1-(4-(4-(4-(ethylamino)-5-(trifluoromethyl)pyrimidin-2-ylamino)-5-methyl-1H-pyrazol-1-yl)piperidin-1-yl)ethanone]
1.1 nM	CNc1nc(Nc2cnn(C(C)C)c2Cl)ncc1C(F)(F)F [Example 138, N2-(5-chloro-1-isopropyl-1H-pyrazol-4-yl)-N4-methyl-5-(trifluoromethyl) pyrimidine-2,4-diamine]
2 nM	CCn1ncc(Nc2ncc(C(F)(F)F)c(NC)n2)c1Cl [Example 139, N2-(5-chloro-1-ethyl-1H-pyrazol-4-yl)-N4-methyl-5-(trifluoromethyl) pyrimidine-2,4-diamine]
0.3 nM	CNc1nc(Nc2cnn(-c3ccnc(C)c3)c2C)ncc1C(F)(F)F [Example 142, N4-methyl-N2-(5-methyl-1-(2-methylpyridin-4-yl)-1H-pyrazol-4-yl)-5-(trifluoromethyl) pyrimidine-2,4-diamine]

Reference: patent US8815882B2, “Pyrazole aminopyrimidine derivatives as LRRK2 modulators” (Genentech, Inc., priority 2010, dated 2014)
